In US8017755B2, “RNA-based transcriptional regulators” (President and Fellows of Harvard College, priority 2003, dated 2011):

Assays:
S. cerevisiae cell wall = details: cited from earlier work
yeast = details: cited from earlier work
TMR-binding aptamer = details: cited from earlier work
S. cerevisiae = experiment: Growth of yeast cultures in varying TMR concentrations; details: 10 μM TMR
[1] = Gal4-VP16 fusions versus intact Gal4; cited from earlier work
HIS3 gene = experiment: Survival on media lacking histidine in strain L40-ura3, which lacks the LexA-MS2 fusion protein; format: cell-based, S. cerevisiae
Text: To test whether the evolved RNAs require the MS2 protein-mediated localization to the LexA promoter, we introduced the plasmids expressing two representative active clones (m26-11 and m26-15) into the yeast strain L40-ura3 which lacks the LexA-MS2 fusion protein but is otherwise identical to YBZ-1 (Bernstein, D. S., Buter, N., Stumpf, C., and Wickens, M. (2002). Analyzing mRNA-protein complexes using a yeast three-hybrid system. Methods 26, 123-141).
Media consisted of yeast nitrogen base (Sigma), 4% dextrose, and synthetic drop out supplements lacking histidine or histidine and uracil (Clontech). Yeast were cultured either in liquid medium or on agar plates at 30° C. S. cerevisiae strains YBZ-1 (MATa, ura3-52, leu2-3, 112, his3-200, trp1-1, ade2, LYS2::(LexA op)-HIS3, ura3::(LexA op)-LacZ, LexA-MS2-MS2 coat (N55K)) and L40-ura3 (MATa, ura3-52, leu2-3112, his3Δ200, trp1Δ1, ade2, LYS2::(LexA op)-HIS3, ura3::(LexA op)-LacZ) were a gift from Professor Marvin Wickens (Bernstein, D. S., Buter, N., Stumpf, C., and Wickens, M. (2002). Analyzing mRNA-protein complexes using a yeast three-hybrid system. Methods 26, 123-141).

Molecule: CN(C)c1ccc2c(-c3ccc(CCl)cc3)c3ccc(=[N+](C)C)cc-3oc2c1 [TMR, tetramethylrosamine]
- crossing of the S. cerevisiae cell wall (S. cerevisiae cell wall): cross the S. cerevisiae cell wall
- concentration non-toxic to yeast (yeast): up to 1 μM
- Kd (TMR-binding aptamer): 40 nM
- growth inhibition of yeast (S. cerevisiae): Slight growth inhibition

Molecule: VP16
- transcriptional activation, fold more potent than Gal4 [1]: 100 fold

Molecule: m26-15: evolved N40-26 variant SEQ ID NO: 28 CGCGGACCAAUGGU-CCCCCAAGUGGAUGCCUAAGCCUCUU (DNA CGCGGACCAAUGGUCCCCCAAGUGGAUGCCUAAGCCUCUU; listed as RNA, chemistry not given here)
- survival on media lacking histidine without LexA-MS2 fusion protein (HIS3 gene): unable to survive
